Source: patent US7713994B2 (Wyeth LLC, priority 2005, dated 2010)

Tests used:
BT474 = experiment: Cytotoxicity assay (SRB), BT474; assay type: cell-based; details: Homo sapiens, BT-474, 144 h, BT474 cells, 6 days, SRB; read-out: In Vitro Cellular Activity IC50 BT474
Procedure, shortened: (§1)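 Growth inhibition, SRB method: 3-day continuous compound exposure for HCT-116, LoVo and MCF-7 and 6-day exposure for BT474. Absorbance at 540 nm reflects surviving cell protein relative to controls.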

cyclin D1/cdk 4 enzyme = target: T1, cyclin D1/cdk 4 enzyme (Homo sapiens, UniProt P11802); experiment: CDK4 ELISA kinase assay (phospho-Rb ser 795 detection); assay type: biochemical; details: In Vitro Enzyme Assay, cyclin D1/cdk 4, read-out: CDK4 IC50
T1 construct: made in house; host or cells: Sf9 insect cells, recombinant baculovirus
T1 sequence (P11802 whole entry, species assumed): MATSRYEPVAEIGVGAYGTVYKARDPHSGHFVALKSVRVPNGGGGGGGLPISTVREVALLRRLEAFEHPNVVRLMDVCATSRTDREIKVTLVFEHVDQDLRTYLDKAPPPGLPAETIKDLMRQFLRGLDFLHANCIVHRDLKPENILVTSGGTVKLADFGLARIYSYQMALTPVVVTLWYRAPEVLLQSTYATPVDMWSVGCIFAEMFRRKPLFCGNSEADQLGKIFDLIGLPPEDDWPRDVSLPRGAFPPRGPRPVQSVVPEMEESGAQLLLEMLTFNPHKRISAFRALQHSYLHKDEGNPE
T1 sequence (P24385 whole entry partner, species assumed): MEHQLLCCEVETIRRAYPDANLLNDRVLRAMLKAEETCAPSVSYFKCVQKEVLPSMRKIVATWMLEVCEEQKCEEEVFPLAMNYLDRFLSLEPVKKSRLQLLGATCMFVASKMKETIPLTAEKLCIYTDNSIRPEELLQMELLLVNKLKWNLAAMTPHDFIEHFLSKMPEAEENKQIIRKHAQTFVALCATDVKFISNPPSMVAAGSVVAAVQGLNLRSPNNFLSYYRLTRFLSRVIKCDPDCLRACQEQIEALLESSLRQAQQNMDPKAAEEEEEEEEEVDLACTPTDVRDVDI
Procedure, shortened: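 Sf9-derived cyclin/CDK, 200 μM ATP, immobilized GST-Rb; 30° C/1 h. Detection: phospho-Ser795 Ab, HRP, TMB, OD450.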

HCT-116 = experiment: Cytotoxicity assay (SRB), HCT-116; assay type: cell-based; details: Homo sapiens, HCT-116, 72 h, HCT116 cells, 3 days, SRB; read-out: In Vitro Cellular Activity IC50 HCT116
Procedure, shortened: as §1

LoVo = experiment: Cytotoxicity assay (SRB), LoVo; assay type: cell-based; details: Homo sapiens, LoVo, 72 h, LoVo cells, 3 days, SRB; read-out: In Vitro Cellular Activity IC50 LOVO
Procedure, shortened: as §1

MCF-7 = experiment: Cytotoxicity assay (SRB), MCF-7; assay type: cell-based; details: Homo sapiens, MCF7, 72 h, MCF-7 cells, 3 days, SRB; read-out: In Vitro Cellular Activity IC50 MCF-7
Procedure, shortened: as §1

SMILES	IC50 (cyclin D1/cdk 4 enzyme) [µM]	IC50 (BT474) [µM]	IC50 (HCT-116) [µM]	IC50 (LoVo) [µM]	IC50 (MCF-7) [µM]
N#CCc1ccc(NC=C2C(=O)NC(=O)c3ccc(-c4cc5ccccc5o4)cc32)cc1 [Example 626, {4-[(6-Benzofuran-2-yl-1,3-dioxo-2,3-dihydro-1H-isoquinolin-4-ylidenemethyl)-amino]-phenyl}-acetonitrile]	3.7	> 50	> 50	> 50	34.1
N#CCc1ccc(NC=C2C(=O)NC(=O)c3ccc(-c4ccc5[nH]ccc5c4)cc32)cc1 [Example 629, (4-{[6-(1H-Indol-5-yl)-1,3-dioxo-2,3-dihydro-1H-isoquinolin-4-ylidenemethyl]-amino}-phenyl)-acetonitrile]	5.5	> 50	> 50	> 50	50
N#CCc1ccc(NC=C2C(=O)NC(=O)c3ccc(-c4cc5ccccc5s4)cc32)cc1 [Example 627, {4-[(6-Benzo[b]thiophen-2-yl-1,3-dioxo-2,3-dihydro-1H-isoquinolin-4-ylidenemethyl)-amino]-phenyl}-acetonitrile]	10.4	4.3	> 50	> 50	7.3
COc1ccc(-c2ccc3c(c2)C(=CNc2ccc(CC#N)cc2)C(=O)NC3=O)cc1 [Example 701, (4-{[6-(4-Methoxy-phenyl)-1,3-dioxo-2,3-dihydro-1H-isoquinolin-4-ylidenemethyl]-amino}-phenyl)-acetonitrile]	6.6	39.6	> 50	> 50	34.4
Cc1ccc(-c2ccc3c(c2)C(=CNc2ccc(CC#N)cc2)C(=O)NC3=O)cc1 [Example 715, {4-[(1,3-Dioxo-6-p-tolyl-2,3-dihydro-1H-isoquinolin-4-ylidenemethyl)-amino]-phenyl}-acetonitrile]	9.3	33.4	19.6	26	24.8
Cc1cccc(-c2ccc3c(c2)C(=CNCc2ccc(S(N)(=O)=O)cc2)C(=O)NC3=O)c1 [Example 753, 4-{[(1,3-Dioxo-6-m-tolyl-2,3-dihydro-1H-isoquinolin-4-ylidenemethyl)-amino]-methyl}-benzenesulfonamide]	3.4	28.9	14.4	23.4	13.3

These reach a lower IC50 (cyclin D1/cdk 4 enzyme). Values come first.

IC50 (cyclin D1/cdk 4 enzyme) [µM]	SMILES	IC50 (BT474) [µM]	IC50 (HCT-116) [µM]	IC50 (LoVo) [µM]	IC50 (MCF-7) [µM]
1.3	Cc1ccc(-c2ccc3c(c2)C(=CNCc2ccc(S(N)(=O)=O)cc2)C(=O)NC3=O)cc1 [Example 752, 4-{[(1,3-Dioxo-6-p-tolyl-2,3-dihydro-1H-isoquinolin-4-ylidenemethyl)-amino]-methyl}-benzenesulfonamide]	33.3	14.8	33.4	18.5
3	N#CCc1ccc(NC=C2C(=O)NC(=O)c3ccc(C=Cn4ccnc4)cc32)cc1 [Example 651, (4-{[6-(2-Imidazol-1-yl-vinyl)-1,3-dioxo-2,3-dihydro-1H-isoquinolin-4-ylidenemethyl]-amino}-phenyl)-acetonitrile]	> 50	> 50	> 50	37.1
2.2	O=C1NC(=O)c2ccc(-c3csc4ccccc34)cc2C1=CNCc1ccc(O)c(O)c1 [Example 645, 6-Benzo[b]thiophen-3-yl-4-[(3,4-dihydroxy-benzylamino)-methylene]-4H-isoquinoline-1,3-dione]	15.5	9	7.2	8.8
2	NS(=O)(=O)c1ccc(CNC=C2C(=O)NC(=O)c3ccc(C=Cc4ccccc4)cc32)cc1 [Example 654, 4-{[(1,3-Dioxo-6-styryl-2,3-dihydro-1H-isoquinolin-4-ylidenemethyl)-amino]-methyl}-benzenesulfonamide]	3.1	2.4	13.1	10.7
